# From publication PMC9229798, “Antioxidant Activity and Cytotoxicity of Aromatic Oligosulfides” (Molecules, 2022)
# System: not listed separately
# Assay: TBARS accumulation in oleic acid oxidation
# Settings: 1 mmol/L additive, 65 °C, 3 h
# Protocol: (§1) The total antioxidant activity of compounds 1–6 during the oxidation of oleic acid with atmospheric oxygen at 65 °C for 3 h was determined by standard methods according to the level of accumulation of the main metabolites. Hydroperoxides as primary products (LOOH) and secondary LPO carbonyl products formed colored complexes with thiobarbituric acid (TBARS).
# (§2) The kinetics of LOOH and TBARS formation was similar in the control test and in the presence of the studied compounds. The exponential kinetic curves of LOOH accumulation in oleic acid corresponded to the equation CLOOH = a × e^kt with correlation coefficients close to 1. It indicated a pseudo-first order of reaction in the substrate, inherent in a radical process with degenerate chain branching (Figure 2). The kinetic curves of secondary carbonyl products were linear and corresponded to the equation CTBARS = kt + b, with correlation coefficients close to 1 (Figure 3).
# The accumulation rate for the final oxidation products (TBARS) was determined according to a modified standard method. Samples (0.01 mL) of oleic acid were taken from the thermostat every 30 min. They were introduced into a test tube containing a mixture of Tris buffer (0.8 mL), distilled water (1.2 mL), and freshly prepared thiobarbituric acid solution (0.8%, 1 mL). The tube was placed for 10 min in a boiling water bath, and after cooling, the absorption of the samples was measured in comparison with that of the control at λ = 532 nm. A similar mixture, but without added oleic acid, was used as the control. The concentration of carbonyl compounds was calculated according to the formula:
# [TBARS] = (E × 3)/0.156, where [TBARS] is the content of carbonyl compounds, nM; E is the extinction of a sample relative to the control; 3 is the sample volume, mL; and 0.156 is the extinction of malondialdehyde (1 nmol) dissolved in 1 mL at λ = 532 nm.
row,SMILES,"TBARS, % Inhibition [%]"
1,"c1ccc(SSSc2ccccc2)cc1 [Compound 1, diphenyl trisulfide]",21.0 ± 0.18
2,"COc1ccccc1SSc1ccccc1OC [Compound 2, bis(2-methoxyphenyl) disulfide]",42.9 ± 0.76
3,"Oc1ccc(SSc2ccc(O)cc2)cc1 [Compound 4, 4,4′-dihydroxydiphenyl disulfide]",39.0 ± 0.49

# System: not listed separately
# Assay: LOOH accumulation in non-enzymatic peroxide oxidation of oleic acid
# Settings: 1 mmol/L additive, 65 °C, 3 h
# Protocol: as §1, §2
# The determination of oleic acid oxidation level was performed by the kinetic measurement of the total concentration of the corresponding isomeric LOOH using iodometric titration. The oxidation of constant volume of the acid (15 mL) was carried out in a thermostatic cell using an air flow at 65 °C during 3 h. The oxidation proceeded in the conditions, the oxidation rate was independent of the air volume passing through the cell.
# The concentrations of the additives were 1 mM compared with the initial concentration of LOOH in the reaction mixture. Oleic acid (1 mL), CHCl3 (12 mL), glacial AcOH (18 mL), and freshly prepared cold-saturated KI solution (1 mL) were placed in a flask and shaken for 2 min. Then distilled water (100 mL) and a 1% starch solution (1 mL) were added and the resulting mixture was immediately titrated with Na2S2O3 solution (0.01 N). Iodine released in an amount equivalent to that of LOOH was titrated with a standard thiosulfate solution. At the same time, a control test for reagents was carried out: all the reagents except for oleic acid were added to the flask. The LOOH concentration was calculated according to the following formula:
# [LOOH] = [(Vs − Vc) × 0.001269 × K × 100]/m, where vs. is the volume of 0.01 N Na2S2O3 solution, consumed during the titration of working sample, mL; Vc is the volume of 0.01 N Na2S2O3 solution, consumed during the titration of control, mL; K is the conversion factor to exactly 0.01 N Na2S2O3 solution; m is the mass of studied oleic acid; and 0.001269 is the amount of I2 expressed in g, equivalent to 1 mL of 0.01 N Na2S2O3 solution. The [LOOH, mmol/L] content equal to 1% corresponded to 78.7 mM of active O2 per 1 L of lipids.
row,SMILES,"LOOH, k0/k1 (relative rate constant of LOOH formation)"
1,"c1ccc(SSSc2ccccc2)cc1 [Compound 1, diphenyl trisulfide]",0.78 ± 0.15
2,"COc1ccccc1SSc1ccccc1OC [Compound 2, bis(2-methoxyphenyl) disulfide]",0.86 ± 0.11
3,"Oc1ccc(SSc2ccc(O)cc2)cc1 [Compound 4, 4,4′-dihydroxydiphenyl disulfide]",0.61 ± 0.03

# Same assay, conditions: after 3 h incubation of oleic acid, 65 °C
row,SMILES,"LOOH accumulation, % of inhibition [%]"
1,"c1ccc(SSSc2ccccc2)cc1 [Compound 1, diphenyl trisulfide]",22.5

# System: SOD
# Assay: SOD-protective activity, cytosolic fraction of liver homogenate
# Format: biochemical, Russian sturgeon
# Settings: adrenaline oxidation with biopreparation, compound initial 25 µM
# Text: Superoxide dismutase (SOD) is present in almost all aerobic cells and extracellular fluids and is able to inhibit the accumulation of adrenochrome by intercepting O2^–•. The process of splitting O2^–• by SOD into O2 and H2O2 occurs in the body, which is facilitated by the presence of metal ions Cu, Zn, Mn and Fe, playing an important role in lipid peroxidation. […] This system is also suitable for determining the activity of the endogenous enzyme–antioxidant SOD responsible for the utilization of O2^–• [43, 44]. The reaction sequence of adrenaline autoxidation with the adrenochrome formation was described earlier.
# SOD-protective activity of the biopreparation was the ability to utilize the superoxide anion radical O2^–•, as determined by the method of Sirota. A cytosolic fraction of the Russian sturgeon liver homogenate was used as the source of SOD. First, the sturgeon liver was washed with cold 0.2 M Tris (tris (hydroxymethyl) aminomethane) buffer (pH 7.8) to remove any traces of blood. All of the procedures were performed at a temperature of 0–4 °C. Next, a homogenate was obtained using a Potter homogenizer (Thomas Scientifc, Swedesboro, NJ, USA) in 0.2 M Tris buffer at a ratio of 1:10. The homogenate was then centrifuged for 10 min at 1000× g to remove partially destroyed cells and nuclei. The resulting supernatant contained the enzymes of the cytosolic fraction of the liver homogenate, including the SOD. Here, 10 µL of the biopreparation was added to a cuvette with 200 µL of bicarbonate buffer (pH 10.65), 10 µL of the tested compound (initial concentrations of these compounds 25 µM) and 10 µL of 0.1% adrenaline solution and was thoroughly and quickly mixed. The rate of adrenaline oxidation without and in the presence of the biopreparation was evaluated by the change in optical density, measured at 347 nm for 3 min. The decrease in the rate of the process in the presence of the biopreparation was used to characterize the SOD-protective activity.
row,SMILES,"SOD Activity of Liver Sturgeon, % Inhibition [%]"
1,"c1ccc(SSSc2ccccc2)cc1 [Compound 1, diphenyl trisulfide]",41 ± 2.7
2,"COc1ccccc1SSc1ccccc1OC [Compound 2, bis(2-methoxyphenyl) disulfide]",60 ± 3.3
3,"Oc1ccc(SSc2ccc(O)cc2)cc1 [Compound 4, 4,4′-dihydroxydiphenyl disulfide]",75 ± 5.6

# System: not listed separately
# Assay: DPPH radical scavenging activity
# Settings: compound solution 0.2 mM in MeOH, DPPH 0.1 mM, 40 min, 20 °C
# Text: The redox activity of organosulfur compounds 1–6 can be assessed by the ability to interact with the stable radical 2,2-diphenyl-1-picrylhydrazyl (DPPH). The delocalization of the radical in the aromatic rings of DPPH ensures its high stability. Therefore, this method is widely used to determine the radical scavenging activity of compounds. It is known that there are two main mechanisms by which antioxidant molecules can deactivate free radicals: hydrogen atom transfer (HAT) and single electron transfer (SET). One of them may dominate depending on the conditions, the structure of the antioxidant and the type of analysis, but both will produce identical final products, despite the difference in mechanisms.
# The free radical scavenging activity was evaluated using the stable radical 2,2-diphenyl-1-picrylhydrazyl (DPPH), according to the method described by Brand-Williams with a slight modification. Solutions of compounds in MeOH were studied at a concentration of 0.2 mM. The stock DPPH solution contained 0.2 mM of radical in MeOH. An amount of 0.1 mL of the test compound solution was added to 0.1 mL of DPPH solution (0.2 mM) in each cell so that the initial DPPH concentration in cells was 0.1 mM. The microplate was placed in a spectrophotometer and the decrease in the absorbance values of DPPH solution for 40 min at 20 °C was measured at λmax = 517 nm. The results were expressed as scavenging activity, calculated as follows: scavenging activity, % = [(A0 − A1)/A0] × 100, where A0 is the optical density of the control solution DPPH, and A1 is the optical density of the reaction mixture solution.
row,SMILES,"DPPH, % (scavenging activity)"
1,"c1ccc(SSSc2ccccc2)cc1 [Compound 1, diphenyl trisulfide]",non active
2,"COc1ccccc1SSc1ccccc1OC [Compound 2, bis(2-methoxyphenyl) disulfide]",non active
3,"COc1ccc(SSc2ccc(OC)c(OC)c2)cc1OC [Compound 3, bis(3,4-dimethoxyphenyl) disulfide]",non active
4,"Oc1ccc(SSc2ccc(O)cc2)cc1 [Compound 4, 4,4′-dihydroxydiphenyl disulfide]",13.42 ± 0.02%
5,"c1ccc(SSc2ccccc2)cc1 [Compound 5, diphenyl disulfide]",non active
6,"CC(C)(C)c1cc(SSc2cc(C(C)(C)C)c(O)c(C(C)(C)C)c2)cc(C(C)(C)C)c1O [Compound 6, bis(3,5-di-tert-butyl-4-hydroxyphenyl) disulfide]",81.56 ± 0.07%
